Test [1] concerns the target T1, KDR (Homo sapiens, UniProt P35968).
T1 construct: made in house; host or cells: SF9 insect cells
The experiment in a line: KDR kinase assay. The format is biochemical. The conditions noted are these: 1 μM ATP, 22° C., 20 min. Here is the method:
Recombinant GST-KDR protein was expressed in SF9 insect cells and then purified. The kinase substrate used was the biotinylated peptide biotin-polyGluAlaTyr from Cisbio International.
GST-KDR [test volume 15 μl] was incubated in the presence of various concentrations of test substances (0 μM, and 10 measurement points within the range 0.001-20 μM in duplicate) in assay buffer [50 mM HEPES pH 7.0, 25 mM MgCl2, 5 mM MgCl2, 0.5 mM Na ortho-vanadate, 1 mM dithiothreitol, 10% glycerol, 1 μM ATP, 23.5 mg/L substrate peptide biotin-polyGluAlaTyr, 1% dimethyl sulphoxide, 1× protease inhibitor mix (from Roche)] at 22° C. for 20 min. The reaction was stopped by adding 5 μl of an EDTA/detection solution [50 mM HEPES pH 7.0, 250 mM EDTA, 0.5% BSA, 22 mg/L streptavidin-XL (from CisBio), 1 mg/L PT66-Eu (from PerkinElmer)]. The fluorescence emission at 620 nm and 665 nm after excitation with light of the wavelength 350 nm was measured in a Rubystar HTRF instrument from BMG Labsystems 60 minutes after addition of the EDTA/detection solution.
(§1) The measured data (ratio of emission 665 divided by emission 620 multiplied by 10 000) were normalized to 0% inhibition (enzyme reaction without inhibitor) and 100% inhibition (all assay components apart from enzyme). The IC50 values were determined by means of a 4-parameter fit using the company's own software.

Test [2] concerns the target T2, Tie-2 (Homo sapiens, UniProt Q02763).
T2 construct: made in house; host or cells: Hi5 insect cells
The experiment in a line: Tie-2 kinase assay. The conditions noted are these: 10 μM ATP, 20 min. The test is classed as biochemical. How it is done:
Recombinant Tie-2 protein was expressed in Hi5 insect cells and then purified. The kinase substrate used was the biotinylated peptide having the amino acid sequence biotin-EPKDDAYPLYSDFG, which was purchased from Biosynthan. Tie-2 [concentration in the mixture 5 ng/μl] was preincubated in the presence of 100 μM ATP in assay buffer [50 mM HEPES pH 7.0, 0.5 mM MgCl2, 1.0 mM dithiothreitol, 0.01% NP40, 1 tablet/2.5 ml complete protease inhibitor (from Roche)] at 22° C. for 20 min. The enzyme reaction [0.5 ng/μl Tie-2 in the test mixture, test volume 5 μl] then took place in the presence of various concentrations of test substances (0 μM, and 10 measurement points within the range 0.001-20 μM in duplicate) in assay buffer with 10 μM ATP, 1.0 μM substrate peptide biotin-EPKDDAYPLYSDFG, 1.0% dimethyl sulphoxide for 20 min. The reaction was stopped by adding 5 μl of an EDTA/detection solution [50 mM HEPES pH 7.5, 89 mM EDTA, 0.28% BSA, 0.2 μM streptavidin-XLent (from CisBio), 2 nM PT66-Eu (from PerkinElmer)]. The fluorescence emission at 620 nm and 665 nm after excitation with light of the wavelength 350 nm was measured in a Rubystar HTRF instrument from BMG Labsystems.
as §1

Drawing on patent US20070191393A1, “Macrocyclic anilinopyrimidines with substituted sulphoximine as selective inhibitors of cell cycle kinases” (priority 2006, published 2007), this text covers IC50 for nine compounds.

Broadly, the IC50 is the concentration at which inhibition is half-maximal. A low value points to inhibition by little substance.

A value given as a limit tells only on which side of the number the result lay.

T1 sequence (P35968 20-1356, species assumed): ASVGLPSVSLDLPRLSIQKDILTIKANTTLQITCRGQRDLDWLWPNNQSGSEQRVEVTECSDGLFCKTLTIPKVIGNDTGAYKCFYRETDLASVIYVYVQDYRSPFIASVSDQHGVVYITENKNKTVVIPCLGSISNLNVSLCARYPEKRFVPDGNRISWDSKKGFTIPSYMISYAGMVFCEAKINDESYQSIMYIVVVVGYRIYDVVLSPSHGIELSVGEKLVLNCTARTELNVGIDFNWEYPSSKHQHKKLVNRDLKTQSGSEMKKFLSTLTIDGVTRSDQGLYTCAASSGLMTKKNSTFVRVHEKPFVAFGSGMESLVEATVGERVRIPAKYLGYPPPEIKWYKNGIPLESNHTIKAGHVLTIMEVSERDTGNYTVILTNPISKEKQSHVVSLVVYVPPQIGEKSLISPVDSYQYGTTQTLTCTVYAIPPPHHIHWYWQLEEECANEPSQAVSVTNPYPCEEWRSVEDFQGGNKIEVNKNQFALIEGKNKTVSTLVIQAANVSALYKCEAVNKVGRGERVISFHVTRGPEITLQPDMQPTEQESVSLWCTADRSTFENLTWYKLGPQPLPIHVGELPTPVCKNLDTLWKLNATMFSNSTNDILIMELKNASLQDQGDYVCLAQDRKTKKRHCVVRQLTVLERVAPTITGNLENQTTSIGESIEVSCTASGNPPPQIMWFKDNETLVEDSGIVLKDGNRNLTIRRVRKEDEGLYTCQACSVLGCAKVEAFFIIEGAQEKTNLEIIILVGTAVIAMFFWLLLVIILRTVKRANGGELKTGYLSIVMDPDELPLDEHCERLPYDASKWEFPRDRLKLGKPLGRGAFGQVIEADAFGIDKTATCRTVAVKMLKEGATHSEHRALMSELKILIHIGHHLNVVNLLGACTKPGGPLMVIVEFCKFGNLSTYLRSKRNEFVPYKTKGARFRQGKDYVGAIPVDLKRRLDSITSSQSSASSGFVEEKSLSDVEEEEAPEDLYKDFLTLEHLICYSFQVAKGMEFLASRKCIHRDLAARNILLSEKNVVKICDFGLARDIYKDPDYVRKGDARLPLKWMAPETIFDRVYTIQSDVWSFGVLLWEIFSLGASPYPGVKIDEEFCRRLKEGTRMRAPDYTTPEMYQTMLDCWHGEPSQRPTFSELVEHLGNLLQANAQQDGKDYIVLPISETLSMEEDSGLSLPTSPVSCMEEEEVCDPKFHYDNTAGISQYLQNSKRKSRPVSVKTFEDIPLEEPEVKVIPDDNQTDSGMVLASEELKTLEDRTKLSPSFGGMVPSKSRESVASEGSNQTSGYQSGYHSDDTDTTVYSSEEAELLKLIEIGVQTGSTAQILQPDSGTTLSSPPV
T2 sequence (Q02763 23-1124, species assumed): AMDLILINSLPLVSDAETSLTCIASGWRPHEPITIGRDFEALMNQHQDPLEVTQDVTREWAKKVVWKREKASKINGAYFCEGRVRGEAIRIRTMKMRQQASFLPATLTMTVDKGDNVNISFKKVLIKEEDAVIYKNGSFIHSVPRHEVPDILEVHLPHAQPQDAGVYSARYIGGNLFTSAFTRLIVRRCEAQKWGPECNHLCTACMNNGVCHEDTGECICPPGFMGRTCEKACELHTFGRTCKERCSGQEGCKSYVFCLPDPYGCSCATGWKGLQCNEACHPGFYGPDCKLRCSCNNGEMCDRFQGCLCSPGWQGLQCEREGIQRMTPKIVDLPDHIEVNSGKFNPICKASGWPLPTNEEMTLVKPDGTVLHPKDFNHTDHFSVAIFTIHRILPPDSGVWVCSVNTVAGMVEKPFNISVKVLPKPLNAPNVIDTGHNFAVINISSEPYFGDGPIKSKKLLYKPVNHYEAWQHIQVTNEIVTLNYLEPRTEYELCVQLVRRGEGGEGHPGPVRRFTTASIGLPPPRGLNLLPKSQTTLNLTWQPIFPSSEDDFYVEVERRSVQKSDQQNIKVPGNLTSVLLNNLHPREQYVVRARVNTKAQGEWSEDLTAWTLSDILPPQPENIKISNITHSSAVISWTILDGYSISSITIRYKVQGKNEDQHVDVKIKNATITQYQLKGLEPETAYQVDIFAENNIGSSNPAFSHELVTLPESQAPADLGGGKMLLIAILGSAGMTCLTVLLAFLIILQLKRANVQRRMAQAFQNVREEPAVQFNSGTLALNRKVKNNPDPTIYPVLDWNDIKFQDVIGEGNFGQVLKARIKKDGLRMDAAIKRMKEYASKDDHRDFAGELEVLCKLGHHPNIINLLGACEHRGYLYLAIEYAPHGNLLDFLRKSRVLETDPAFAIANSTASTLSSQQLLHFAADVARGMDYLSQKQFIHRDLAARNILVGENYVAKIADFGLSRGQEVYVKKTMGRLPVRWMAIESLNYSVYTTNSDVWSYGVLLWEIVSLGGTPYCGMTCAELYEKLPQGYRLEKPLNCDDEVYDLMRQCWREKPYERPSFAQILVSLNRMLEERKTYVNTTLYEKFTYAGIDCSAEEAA

In the case of `CCOC(=O)N=S(C)(=O)c1ccc2cc1NCCCCNc1nc(ncc1Br)N2` (racemic) [Example 1, (RS)—S-[1^5-Bromo-2,4,9-triaza-1(2,4)-pyrimidina-3(1,3)-benzenacyclononaphan-3^4-yl]-N-(ethoxycarbonyl)-S-methylsulphoximide], the IC50 in test [1] stood at 61 nM; in test [2] it was 2920 nM.

For `CCOC(=O)N=S(C)(=O)c1ccc2cc1NCCCCNc1nc(ncc1I)N2` (racemic) [Example 4, (RS)—N-(Ethoxycarbonyl)-S-[1^5-iodo-2,4,9-triaza-1(2,4)-pyrimidina-3(1,3)-benzenacyclononaphan-3^4-yl]-S-methylsulphoximide], in test [1], the IC50 came to 9 nM. The same measure, in the same setting: as for `C[Si](C)(C)CCS(=O)(=O)N=S(C)(=O)c1ccc2cc1NCCCCNc1nc(ncc1Br)N2` (racemic) [Example 5, (RS)—S-[1^5-Bromo-2,4,9-triaza-1(2,4)-pyrimidina-3(1,3)-benzenacyclononaphan-3^4-yl]-S-methyl-N-[2-(trimethylsilyl)ethylsulphonyl]sulphoximide], the figure is 22 nM. In the case of `CCNC(=O)N=S(C)(=O)c1ccc2cc1NCCCCNc1nc(ncc1Br)N2` (racemic) [Example 6, (RS)—S-[1^5-Bromo-2,4,9-triaza-1(2,4)-pyrimidina-3(1,3)-benzenacyclononaphan-3^4-yl]-N-(ethylcarbamoyl)-S-methylsulphoximide], the IC50 is 22 nM in test [1] and 1410 nM in test [2]. Regarding `CCCS(=O)(=O)N=S(C)(=O)c1ccc2cc1NCCCCNc1nc(ncc1Br)N2` (racemic) [Example 7, (RS)—S-[1^5-Bromo-2,4,9-triaza-1(2,4)-pyrimidina-3(1,3)-benzenacyclononaphan-3^4-yl]-S-methyl-N-(propylsulphonyl)sulphoximide], the IC50 in test [1] turned out to be 7 nM; in test [2] it was 1700 nM.

In the case of `CCCOC(=O)N=S(C)(=O)c1ccc2cc1OCCCCNc1nc(ncc1Br)N2` (racemic) [Example 8, (RS)—S-[1^5-Bromo-4-oxa-2,9-diaza-1(2,4)-pyrimidina-3(1,3)-benzenacyclononaphan-3^4-yl]-S-methyl-N-(propoxycarbonyl)sulphoximide], the concentration for half-maximal inhibition (IC50) worked out at 136 nM in test [1] and 17100 nM in test [2].

Consider `C[Si](C)(C)CCS(=O)(=O)N=S(C)(=O)c1ccc2cc1OCCCCNc1nc(ncc1Br)N2` (racemic) [Example 9, (RS)—S-[1^5-Bromo-4-oxa-2,9-diaza-1(2,4)-pyrimidina-3(1,3)-benzenacyclononaphan-3^4-yl]-S-methyl-N-[2-(trimethylsilyl)ethylsulphonyl]sulphoximide], for which the IC50 was 60 nM in test [1] and more than 10000 nM in test [2]. Regarding `CCOC(=O)N=S(C)(=O)c1ccc2cc1NCCCCNc1nc(ncc1Br)N2` (single isomer, unassigned) [Example 2], the midpoint of inhibition in test [1], the IC50, lay at 198 nM. In test [1], `CCOC(=O)N=S(C)(=O)c1ccc2cc1NCCCCNc1nc(ncc1Br)N2` (single isomer, unassigned) [Example 3] returned an IC50 of 289 nM.
